Experiments:
sensory evaluation team = assay: Saltiness threshold analysis by triangle test method; format: in vivo; settings: serial 1:1 dilution from 1.0 mg/mL; for saltiness threshold: NaCl as positive control
Description: The threshold analysis was conducted by triangle test method. […] A mass concentration of the penultimate solution was recorded as the salinity threshold for the synthetic peptide.

[1] = Electronic tongue saltiness measurement of peptide / NaCl solutions
Description: In order to understand the flavor characteristics of DIQPEER synthetic peptide solutions of different concentrations in NaCl solutions of different concentrations, 0.5 g/L, 1.0 g/L, 1.5 g/L, and 2.0 g/L DIQPEER synthetic peptide aqueous solutions were added into 3.5 g/L, 3.0 g/L, 2.5 g/L, and 2.0 g/L NaCl solutions, respectively, for electronic tongue measurement.
As the concentration of synthetic peptides increased, the concentration of NaCl solution decreased and the saltiness enhancing effect weakened. Without affecting the overall solution taste, DIQPEER could replace about 50% of NaCl compared to the saltiness value of 4.0 g/L NaCl solution.

Molecule: DIQPEER
- Threshold (sensory evaluation team; saltiness threshold): 0.282 mmol/L
- saltiness threshold (sensory evaluation team): 0.282 mM
- saltiness intensity of peptide aqueous solutions ([1]; 0.5, 1.0, 1.5 and 2.0 g/L DIQPEER, FIG. 7): saltiness intensity increased with the increase of the concentration
- salinity of the solution (synergy with NaCl) ([1]; 1.0 g/L synthetic peptide added to 3.0 g/L NaCl solution, FIG. 8): increased significantly
- saltiness enhancement (increase of saltiness value) ([1]; 1.0 g/L synthetic peptide added to 3.0 g/L NaCl solution, compared with saltiness value of 4.0 g/L NaCl solution): 69.59%
- share of NaCl that can be replaced ([1]; compared to the saltiness value of 4.0 g/L NaCl solution): about 50%

Molecule: [Cl-].[Na+] [NaCl, reference compound]
- saltiness threshold (sensory evaluation team): 1.07 mM
